# Experiments:
# Assay type in all cases: functional, cell-based
# MCF7 = test: Antiproliferative activity against human MCF7 cells after 48 hrs by MTT assay; conditions: MCF7, 48 h
# MDA-MB-231 = test: Antiproliferative activity against human MDA-MB-231 cells after 48 hrs by MTT assay; conditions: MDA-MB-231, 48 h
# 4T1 = test: Antiproliferative activity against mouse 4T1 cells after 48 hrs by MTT assay; conditions: 4T1, 48 h
# A-375 = test: Antiproliferative activity against human A375 cells after 48 hrs by MTT assay; conditions: A-375, 48 h
# B16-F10 = test: Antiproliferative activity against mouse B16F10 cells after 48 hrs by MTT assay; conditions: B16-F10, 48 h
# PANC-1 = test: Antiproliferative activity against human PANC1 cells after 48 hrs by MTT assay; conditions: PANC-1, 48 h
# A549 = test: Antiproliferative activity against human A549 cells after 48 hrs by MTT assay; conditions: A549, 48 h
# HeLa = test: Antiproliferative activity against human HeLa cells
# HT-29 = test: Antiproliferative activity against human HT-29 cells
IC50 (MCF7) [µM],IC50 (MDA-MB-231) [µM],IC50 (4T1) [µM],IC50 (A-375) [µM],IC50 (B16-F10) [µM],IC50 (PANC-1) [µM],IC50 (A549) [µM],SMILES,IC50 (HeLa) [µM],IC50 (HT-29) [µM]
> 100,> 100,79.8,45.9,30.1,59.3,41.4,CC[C@H](C)[C@H](NC(=O)OCc1ccccc1)C(=O)O[C@@H](CC(C)C)C(=O)N[C@@H](CC(C)C)C(=O)N[C@@H](C)/C=C/C(=O)N1C(=O)C=C(OC)[C@@H]1Cc1ccccc1,,
> 100,94.8,> 100,> 100,> 100,86.9,> 100,COC1=CC(=O)N(C(=O)/C=C/[C@H](C)NC(=O)[C@H](CC(C)C)N(C)C)[C@@H]1Cc1ccccc1,,
> 100,> 100,> 100,> 100,> 100,> 100,> 100,CC[C@H](C)[C@H](NC(=O)OCc1ccccc1)C(=O)N[C@@H](CC(C)C)C(=O)N[C@@H](CC(C)C)C(=O)N[C@@H](C)/C=C/C(=O)N1C(=O)C=C(OC)[C@@H]1c1c[nH]c2ccccc12,,
4.66,1.96,1.92,1.35,0.892,0.787,15.1,CC[C@H](C)[C@H](NC(=O)OCc1ccccc1)C(=O)N[C@@H](CC(C)C)C(=O)N[C@@H](CC(C)C)C(=O)N[C@@H](C)/C=C/C(=O)N1C(=O)C=C(OC)[C@@H]1C,,
11.2,32.8,40.8,15.2,15.2,11.6,14.6,CC[C@H](C)[C@H](NC(=O)Cc1cccc(C(F)(F)F)c1)C(=O)N[C@@H](CC(C)C)C(=O)N[C@@H](CC(C)C)C(=O)N[C@@H](C)/C=C/C(=O)N1C(=O)C=C(OC)[C@@H]1C(C)C,,
75.1,79.7,19.2,11.4,29.2,82.1,30,COC1=CC(=O)N(C(=O)/C=C/[C@H](C)NC(=O)[C@H](CC(C)C)N(C)C)[C@H]1C,,
> 100,> 100,> 100,> 100,> 100,> 100,> 100,CC[C@H](C)[C@@H](C(=O)O[C@@H](CC(C)C)C(=O)N[C@@H](CC(C)C)C(=O)N[C@@H](C)/C=C/C(=O)N1CCOCC1)N(C)C,,
10.1,25.1,35.3,44.2,60.5,> 100,20.8,CC[C@H](C)[C@H](NC(=O)Nc1ccc(OC)cc1)C(=O)N[C@@H](CC(C)C)C(=O)N[C@@H](CC(C)C)C(=O)N[C@@H](C)/C=C/C(=O)N1C(=O)C=C(OC)[C@@H]1C(C)C,,
18.6,89.5,> 100,7.56,30.5,12.8,> 100,COC1=CC(=O)N(C(=O)/C=C/[C@H](C)NC(=O)[C@H](CC(C)C)N(C)C)[C@H]1C(C)C,,
> 100,> 100,> 100,> 100,> 100,> 100,> 100,CC[C@H](C)[C@@H](C(=O)O[C@@H](CC(C)C)C(=O)N[C@@H](CC(C)C)C(=O)N[C@@H](C)/C=C/C(=O)N(CC)CC)N(C)C,,
> 100,> 100,> 100,> 100,> 100,> 100,> 100,CC[C@H](C)[C@H](NC(=O)OCc1ccccc1)C(=O)N[C@@H](CC(C)C)C(=O)N[C@@H](CC(C)C)C(=O)N[C@@H](C)/C=C/C(=O)N1C(=O)C=C(OC)[C@@H]1Cc1ccccc1,,
> 100,98.3,27.6,35.7,61.6,36,52.5,CC[C@H](C)[C@@H](C(=O)N[C@@H](CC(C)C)C(=O)N[C@@H](CC(C)C)C(=O)N[C@@H](C)/C=C/C(=O)N1C(=O)C=C(OC)[C@@H]1C(C)C)N(C)C,,
32.9,15.6,15,5.49,4.23,14,13.8,CC[C@H](C)[C@H](NC(=O)OCc1ccccc1)C(=O)O[C@@H](CC(C)C)C(=O)N[C@@H](CC(C)C)C(=O)N[C@@H](C)/C=C/C(=O)N1C(=O)C=C(OC)[C@@H]1C,,
> 100,> 100,> 100,> 100,> 100,38.3,> 100,CC[C@H](C)[C@@H](C(=O)O[C@@H](CC(C)C)C(=O)N[C@@H](CC(C)C)C(=O)N[C@@H](C)/C=C/C(=O)NC(C)(C)C)N(C)C,,
14.9,22.2,20.1,9.89,7.07,5.21,36.2,C#CCCC(=O)N[C@H](C(=O)N[C@@H](CC(C)C)C(=O)N[C@@H](CC(C)C)C(=O)N[C@@H](C)/C=C/C(=O)N1C(=O)C=C(OC)[C@@H]1C(C)C)[C@@H](C)CC,,
> 100,> 100,> 100,> 100,> 100,> 100,> 100,CC[C@H](C)[C@@H](C(=O)O[C@@H](CC(C)C)C(=O)N[C@@H](CC(C)C)C(=O)N[C@@H](C)/C=C/C(=O)OC)N(C)C,,
> 100,57.7,> 100,> 100,> 100,67,> 100,COC1=CC(=O)N(C(=O)/C=C/[C@H](C)NC(=O)[C@H](CC(C)C)N(C)C)[C@H]1Cc1ccccc1,,
21.2,12.8,27.9,13.7,24.9,19.6,27.5,CC[C@H](C)[C@H](NC(=O)OCc1ccccc1)C(=O)O[C@@H](CC(C)C)C(=O)N[C@@H](CC(C)C)C(=O)N[C@@H](C)/C=C/C(=O)N1C(=O)C=C(OC)[C@@H]1C(C)C,,

SMILES,IC50 (MCF7) [µM],IC50 (MDA-MB-231) [µM],IC50 (4T1) [µM],IC50 (A-375) [µM],IC50 (B16-F10) [µM],IC50 (PANC-1) [µM],IC50 (A549) [µM],IC50 (HeLa) [µM],IC50 (HT-29) [µM]
CC[C@H](C)[C@@H](C(=O)O[C@@H](CC(C)C)C(=O)N[C@@H](CC(C)C)C(=O)N[C@@H](C)/C=C/C(=O)N1C(=O)C=C(OC)[C@@H]1C)N(C)C [GALLINAMIDE A],45.5,34.9,34.6,45.6,59.7,31.2,40.4,12,53
CC[C@H](C)[C@@H](C(=O)N[C@@H](CC(C)C)C(=O)N[C@@H](CC(C)C)C(=O)N[C@@H](C)/C=C/C(=O)N1C(=O)C=C(OC)[C@@H]1C)N(C)C,38.9,38.2,16.5,11.2,15.1,15.7,50.5,,

# — ChEMBL document CHEMBL4270546, “A novel Anti-Cancer Stem Cells compound optimized from the natural symplostatin 4 scaffold inhibits Wnt/β-catenin signaling pathway” (Eur J Med Chem, 2018)
